Melting point data for 86 compounds are collected here from a melting point compilation (Tetko et al.; mined from patent text by program, amines drawn as free bases though some values may be those of a salt).

Bounds are passed on as bounds.

As to `CCCCCC(NS(=O)(=O)c1ccc(Cl)cc1)c1ccc(CCCC(=O)O)cc1` (single isomer, unassigned; (-)), the melting point was in the range of 134 to 137 °C.
As for `O=C(Nc1ccccc1C(=O)O)c1cccc(OC(F)F)c1`, the melting point fell in the range of 186 to 191 °C.
`COc1cc(Nc2c(C#N)cnc3cc4cc(OC)c(OCCN5CCN(C)CC5)cc4cc23)c(Cl)cc1C` yielded a melting point of 220 to 227 °C.
In turn, `O=C(CC1CCN(CCc2ccccc2)CC1)c1ccc(F)cc1` yielded a melting point of 73 to 74 °C.
In the case of `CCCCCCCCCCCCCCCC(=O)N1C[C@H](O)C[C@H]1C(=O)OCCCCCCCCCCCC` it was 39 to 44 °C; in that of `CNC(=S)NC1CCCc2cc(C)cnc21` (stereo unspecified), 113 °C; in that of `O=c1cc(OCc2ccccc2)c2ccc(OCCc3ccc(F)cc3)cc2o1`, 120 °C.
`Clc1nc2ccccc2n2cnc(-c3nc(C4CC4)no3)c12`: the melting point is 166 to 168 °C.
To `O=[N+]([O-])c1cccc(P(=O)(O)O)c1` belongs 148 to 155 °C.
`CN(c1cc(OCCCS(C)(=O)=O)cc2cc(C(=O)NCC(CN3CCN(S(C)(=O)=O)CC3)SCc3ccccc3)[nH]c12)S(=O)(=O)c1ccccn1` (stereo unspecified) had a melting point of 195 to 196 °C.
Regarding `CS(=O)(=O)CCN1C(=O)CN=C(c2ccccc2F)c2cc(Cl)ccc21`, the melting point fell in the range of 155 to 156 °C.
As for `Clc1ccc(-c2ccc(N3CCCN(c4ccc(-c5ccc(Cl)cc5)cn4)CC3)nc2)cc1`, the melting point lay within 245 to 247 °C.
On to `Cc1cc(-n2ccnc2)c2cccc(OCc3c(Cl)ccc(S(=O)(=O)N4CCC[C@H]4C(=O)NCCO)c3Cl)c2n1`, for which the melting point is 140 °C.
To `O=[N+]([O-])c1cn(-c2cccnc2)nc1-c1ccccc1` belongs 144 to 146 °C.
For `CCOCc1cc2cc(Cl)ccc2oc1=Nc1ccccc1`, the melting point is 58 to 59 °C.
In turn, `Nc1ccc(CCNC(=O)Nc2ccc(Nc3ccccc3)cc2)cc1` showed a melting point of over 260 °C.
In the case of `FC(F)(F)c1ccc2c(c1)N(C1=CCCN1C1=NCCC1)c1ccccc1O2`, the melting point fell in the range of 140 to 142 °C.
Regarding `COc1cc(C(C)C)c(Oc2cnc(N)nc2N)cc1I`, the melting point lay in the range of 204 to 206 °C.
In turn, `CCS(=O)(=O)Nc1cc(-n2nnn(CCCF)c2=O)c(F)cc1Cl` registered a melting point of 84 to 85 °C.
As for `Nc1nc(Cl)cc(OCC2(CO)CCC2)n1`, the melting point is 125 to 127 °C.
To `CC(=O)Nc1ccc(Nc2nccc(-c3sc(C)nc3C)n2)cc1` belongs 219 to 220 °C.
`Cc1nn(Cc2ccc(OCc3nc(-c4ccccc4)oc3C)cc2)c(C)c1CCC(=O)O` gave a melting point of 170 to 171 °C.
`COC1=Nc2ccc(Cl)cc2N(c2ccccc2)C(=O)C1` displayed a melting point of 136 to 138 °C.
For the compound `COc1cccc2c(-c3ccccc3)c([N+](=O)[O-])oc12`, the melting point lay in the range of 160 to 161 °C.
In the case of `COc1cc2c(cc1OCc1ccccc1)C(c1ccccc1)=NCC2` it was 134 to 137 °C; in that of `COCC1=C(C(=O)OC)[C@H](c2ccc(F)c(F)c2)N(C(=O)NCCC(=O)O)C(=O)N1`, 52 to 55 °C.
In the case of `COc1ccc(-c2nnc3c4ccccc4c(Cl)nn23)cc1`, the melting point lay in the range of 192 to 193 °C.
`CCOC(=O)C1CCn2c(cc3ccccc32)C1O` (stereo unspecified): the melting point was 116 to 120 °C.
In the case of `COc1ccc(-c2cc(=S)n(C)c(=O)n2C)cc1OC` it was 146 to 148 °C; in that of `O=C(O)c1cccnc1NCc1ccccc1`, 148 °C.
Compound `COc1cccc(CC2NC(=O)NC2=O)c1OCc1ccccc1` (racemic) yielded a melting point of 202 to 204 °C.
`CCCCc1nn(-c2ccc(C(F)(F)F)cn2)cc1CCCOc1nn(CC)cc1CC(=O)O` returned a melting point of 109 to 110 °C.
As to `COc1cc2c(cc1Nc1ncc(Cl)c(Nc3cccc(OCC#N)c3)n1)CCOC(=O)N2C`, the melting point is 227 to 229 °C.
The compound `Cc1cc(C=O)c2cccc(OCc3ccccc3)c2n1` displayed a melting point of 129 °C.
On to `BrCCCc1ncnn1C(c1ccccc1)(c1ccccc1)c1ccccc1`, for which the melting point was in the range of 146 to 149 °C.
In the case of `Cc1cncc(-c2cncc(OC3SCC(O)C(O)C3O)c2)c1` (stereo unspecified) it was 119 to 120 °C; in that of `Clc1cc(Cl)c(Cl)c(CBr)c1`, 40 to 42 °C.
In turn, `CCOC(=O)CCCN1C(=O)N(c2ccc(C#N)c(C(F)(F)F)c2)C(=O)C12CCOCC2` displayed a melting point of 129 to 130 °C.
In the case of `CC(=O)N1c2ccccc2-n2cnc(-c3nc(C4CC4)no3)c2C1(C)C` it was 169 to 171 °C.
Take `ClCc1cccc2c(C3CCCCC3)nccc12`: the melting point lay within 88.4 to 89.4 °C.
Turning to `COC(=O)CC[C@H](NC(=O)c1ccc(OCc2ccccc2)cc1)C(=O)OC`, the melting point was 108 to 109 °C.
On to `Cc1cc(CCCCCOc2c(Cl)cc(-c3ccco3)cc2Cl)on1`, for which the melting point lay within 29 to 30 °C.
In the case of `CC1(C)CC2(CC(C)(C)c3ccc(Oc4cccc([N+](=O)[O-])c4)cc32)c2cc(Oc3cccc([N+](=O)[O-])c3)ccc21` it was 174 to 175 °C; in that of `CCN1C(=O)SC(Cc2ccc(NC(=O)/C=C/c3cnn(C)c3-c3ccc(F)cc3)cc2)C1=O` (stereo unspecified), 214 to 215 °C; in that of `CN1CCN(CC/C=C/c2cc3c(Nc4ccc5[nH]ccc5c4)c(C#N)cnc3s2)CC1`, 220 °C.
Turning to `CC(C)(C)c1cc(Cl)cc2c1OC(=O)C2O` (stereo unspecified), the melting point was 150 to 154 °C.
The compound `CC(=O)C(C)=Cc1sccc1C` showed a melting point of 72 °C.
Compound `COc1ccc(CCN(C(C)=O)c2c(C)c(C)c3c(c2C)C(c2ccc(C(C)C)cc2)C(C)(C)O3)cc1` (stereo unspecified) yielded a melting point of 134 to 136 °C.
In the case of `CN(C)c1ccc(-c2cnc(N)c([N+](=O)[O-])c2)cc1`, the melting point turned out to be 212 °C.
In turn, `C=C(COC1CC2C3CCC4=CC(=O)C=CC4(C)C3(F)C(O)CC2(C)C1(O)C(=O)CCl)c1ccccc1` (stereo unspecified) gave a melting point of 212 to 214 °C.
`O=C(O)c1cc2n(c1)CCc1ccccc1C2=O`: the melting point fell in the range of 287 to 290 °C.
`CC1C(=O)C2CCCCC2N2CCc3ccccc3C12` (stereo unspecified) had a melting point of 144 to 148 °C.
`CCCCCCCCCCCCC1=C(O)C(=O)c2ccccc2C1=O` returned a melting point of 85 to 87 °C.
`CC(C)(C)OC(=O)Nn1ccc2ccccc21`: the melting point lay in the range of 112 to 116 °C.
The compound `CN(C)Cc1nnc(CN2C(=O)c3ccccc3C2=O)n1-c1ccc(Cl)cc1C(=O)c1ccccc1` gave a melting point of 206 to 208 °C.
The compound `COC(=O)C1=C(C)NC(C)=C(C(=O)OCCc2cc(C)[nH]c2C)C1c1cccc([N+](=O)[O-])c1` (stereo unspecified) gave a melting point of 156 to 160 °C.
In turn, `CCCCN(CCCC)CCCCC(=O)c1ccc2c(c1)Cc1cc(C(=O)CCCCN(CCCC)CCCC)ccc1-2` came in with a melting point of 48 to 50 °C.
The compound `FC(F)Sc1nnc(-c2cccs2)s1` had a melting point of 63 to 64 °C.
In the case of `COc1cc(Cl)cc2nc(S(=O)(=O)Nc3c(Cl)cccc3Cl)nn12`, the melting point lay within 232 to 234 °C.
As to `CC1(C)CC(=O)C2=C(C1)NC1=C(C(=O)CC(C)(C)C1)C2c1ccc(Cl)c(Oc2ccccc2)c1`, the melting point was 246 to 248 °C.
`O=c1ccn(-c2cccc(C(F)(F)F)c2)nc1-c1ccnn1-c1ccc(F)cc1` registered a melting point of 130 to 131 °C.
As for `C=C1SC(=O)N(c2ccc3cc(-c4ccc(O)c(C(C)(C)C)c4)ccc3c2)C1=O`, the melting point was 276 to 278 °C.
In the case of `O=C(Oc1ccc(F)cc1)c1ccccc1`, the melting point was 48 to 50 °C.
To `CC(C)(C)COc1ccc(N(CC(=O)O)C(=O)c2cnn(-c3ccc(F)cc3)c2)cc1C#N` belongs 274 to 275 °C.
As for `N#CCN1C(=O)COc2cc(F)c([N+](=O)[O-])cc21`, the melting point was in the range of 196 to 200 °C.
As to `Cc1nc(N)c2nc(C)n(NC(C)C)c2c1C`, the melting point fell in the range of 203 to 205 °C.
The compound `CCOC(=O)C(C#N)=CNc1ccc(C)cn1` came in with a melting point of 170 to 172 °C.
In the case of `Cc1oc(C=Cc2ccccc2)nc1CCl`, the melting point lay in the range of 108 to 109 °C.
For the compound `CC(C)(O)C(=O)Nc1ccc2oc3ccccc3c2c1`, the melting point fell in the range of 134 to 137 °C.
Compound `Nc1nc(-c2cc(Cl)ccc2Cl)nc(N2CCN(C(c3ccccc3)c3ccccc3)CC2)n1` came in with a melting point of 217 to 218 °C.
As for `COc1ccc(C(C#N)=NO)cc1OC`, the melting point fell in the range of 183 to 191 °C.
For the compound `C#CCNC(=O)C=C(C)N`, the melting point lay in the range of 137 to 138 °C.
As for `O=C(Nc1ccc(F)c(C(F)(F)F)c1)N1COc2cc(Oc3cc(Cl)ncn3)ccc21`, the melting point fell in the range of 188 to 191 °C.
As for `CCC1c2c(C#N)ncn2-c2cnc(Nc3ccc(C(=O)NC4CCN(C5CCN(CC(C)C)CC5)CC4)cc3OC)nc2N1C(C)C` (stereo unspecified), the melting point was 165 to 170 °C.
Turning to `CCCCN(CCCC)c1ccc(C=Cc2ccc(C(C#N)=C(C#N)C#N)s2)c(OC)c1`, the melting point is 189 to 192 °C.
`COc1ccc(S(=O)(=O)Nc2cccc(C)c2NC(=O)c2ccc(F)cc2)cc1` showed a melting point of 204 to 206 °C.
Compound `Cc1c(NC(=O)c2ccc(OCc3ccc(F)cc3)cc2)ccc2cc(CN3CCCCC3)cnc12` had a melting point of 159 to 160 °C.
Regarding `Cc1nnc2n1-c1ccc(C#C[Si](C)(C)C)cc1C(c1ccccc1F)=NC2`, the melting point is 218 to 219 °C.
Compound `Cc1ccc(S(=O)(=O)OC(C)COc2c([N+](=O)[O-])ccc(F)c2F)cc1` (stereo unspecified) came in with a melting point of 67 to 69 °C.
Compound `FC(F)(F)c1ccc(-c2ccnc(Nc3ccccc3)n2)cc1` came in with a melting point of 162 to 163 °C.
To `O=C(Nc1ccc(NCCCO)nc1)c1cc2cc(C(F)(F)F)cnc2n1Cc1cccc(F)c1` belongs 207 to 210 °C; to `CCCCCCCCCCCCCCCCCCOCC(O)Cn1ccc(N)nc1=O` (stereo unspecified), 153 to 154 °C; to `COC(=O)CC1c2cc(OC)ccc2N(c2nc3ccccc3nc2Cl)C1C` (stereo unspecified), 155 to 157 °C.
Compound `O=C1OC(=Cc2ccccc2C(F)(F)F)C(O)=C1c1ccc(-c2ccccc2)cc1` gave a melting point of 228 to 230 °C.
As to `Cn1c(COc2cccc(N)c2)nc2ccccc21`, the melting point was 149 to 153 °C.
For the compound `O[C@H]1CC[C@H](Nc2nccc(-n3nnc4ccccc43)n2)CC1`, the melting point fell in the range of 225 to 228 °C.

The melting point is the temperature, or range, at which the solid turns liquid.
